Measurements as given in patent publication US9115083B2 (Simpson Biotech Co., Ltd, priority 2011, dated 2015).

The compounds below were run against HCV NS3/4A protease (Hepatitis C virus genotype 1a (isolate H77) (HCV), UniProt P27958) (assay: HCV protease assay (fluorimetric, FRET substrate)). Settings: HCV NS3/4A protease, 30 min at 37° C., triplicate; read-out: IC50 against HCV protease.
Format: biochemical
Excerpt: The HCV protease assay herein was applied to investigate the HCV-protease inhibitory activity of the prepared compounds as described above. The method of the HCV protease assay was described in D. T. Phuong, C. M. Ma, M. Hattori and J. S. Jin: Inhibitory Effects of Antrodins A-E from Antrodia cinnamomea and Their Metabolites on Hepatitis C Virus Protease. Phytotherapy Research, 23, 582-584, 2009. Two micro liters of a compound solution (using DMSO as solvent) was placed in 384 well micro plate, then 8 μl of HCV NS3/4A protease ([…]) was added to the well containing a sample and the plate was agitated. Finally, 10 μL of freshly prepared substrate (Ac-Asp-Glu-Dap(QXL™520)-Glu-Glu-Abu-COO-Ala-Ser-Cys(5-FAMsp)-NH2) (100× dilution of a DMSO stock solution) was added with sequential rotational shaking. The reaction mixture was incubated for 30 min at 37° C. The fluorimetric analyses were performed on an automated TECAN GENios plate reader with excitation wavelength at 485 nm and emission 530 nm. Each test compound was carried out in triplicate. The HCV—PR inhibition (%) was calculated by using the following equation: % inhibition=(Fvehicle control−[…])×100/Fvehicle control (Where F is the fluorescence value of vehicle control or of sample minus the fluorescence of the substrate control).

Chain of HCV NS3/4A protease (P27958 1027-1657): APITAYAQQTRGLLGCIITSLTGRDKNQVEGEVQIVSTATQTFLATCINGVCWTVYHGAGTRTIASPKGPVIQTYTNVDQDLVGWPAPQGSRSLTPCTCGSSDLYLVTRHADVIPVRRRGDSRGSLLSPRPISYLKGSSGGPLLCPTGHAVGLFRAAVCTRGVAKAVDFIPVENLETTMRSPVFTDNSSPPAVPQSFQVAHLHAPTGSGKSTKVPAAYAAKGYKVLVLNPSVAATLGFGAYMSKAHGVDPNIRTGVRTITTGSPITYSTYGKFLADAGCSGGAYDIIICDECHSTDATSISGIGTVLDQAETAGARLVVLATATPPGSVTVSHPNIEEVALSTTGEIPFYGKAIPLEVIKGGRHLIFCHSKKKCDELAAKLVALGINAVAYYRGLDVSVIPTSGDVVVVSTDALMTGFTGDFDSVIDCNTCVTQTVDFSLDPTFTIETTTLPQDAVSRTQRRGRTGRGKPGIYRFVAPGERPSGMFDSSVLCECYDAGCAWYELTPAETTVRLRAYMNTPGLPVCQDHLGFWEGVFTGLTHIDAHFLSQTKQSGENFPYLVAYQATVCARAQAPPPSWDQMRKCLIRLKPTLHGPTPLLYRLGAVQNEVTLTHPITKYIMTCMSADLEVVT
Chain of HCV NS3/4A protease (P27958 1658-1711 partner): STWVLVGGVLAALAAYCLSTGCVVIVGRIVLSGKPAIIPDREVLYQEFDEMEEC

Compound	IC50 [µM]
COC(=O)C(NC(=O)C(CC(C)C)N1C(=O)C(CC(C)C)=C(c2ccc(OCC=C(C)C)cc2)C1=O)C(C)C (stereo not shown) [Compound A1-1, Methyl 2-(2-(3-isobutyl-4-(4-(3-methylbut-2-enyloxy)phenyl)-2,5-dioxo-2,5-dihydro-1H-pyrrol-1-yl)-4-methylpentanamido)-3-methyl-butanoate]	> 100
CCOC(=O)C(Cc1ccc(O)cc1)NC(=O)C(CC(C)C)N1C(=O)C(CC(C)C)=C(c2ccc(OCC=C(C)C)cc2)C1=O (stereo not shown) [Compound A1-2, Ethyl 3-(4-hydroxyphenyl)-2-(2-(3-isobutyl-4-(4-(3-methylbut-2-enyloxy)phenyl)-2,5-dioxo-2,5-dihydro-1H-1-yl)-4-methylpentanamido)propanoate]	> 100
COC(=O)C(CO)NC(=O)C(CC(C)C)N1C(=O)C(CC(C)C)=C(c2ccc(OCC=C(C)C)cc2)C1=O (stereo not shown) [Compound A1-3, Methyl 3-hydroxy-2-(2-(3-isobutyl-4-(4-(3-methylbut-2-enyloxy)-phenyl)-2,5-dioxo-2,5-dihydro-1H-pyrrol-1-yl)-4-methylpentanamido)-propanoate]	> 100
COC(=O)C1CCCN1C(=O)C(CC(C)C)N1C(=O)C(CC(C)C)=C(c2ccc(OCC=C(C)C)cc2)C1=O (stereo not shown) [Compound A1-4]	> 100
CC(C)=CCOc1ccc(C2=C(CC(C)C)C(=O)N(C(CC(C)C)C(=O)NC3CC3)C2=O)cc1 (stereo not shown) [Compound A1-6, N-Cyclopropyl-2-(3-isobutyl-4-(4-(3-methylbut-2-enyloxy)phenyl)-2,5-dioxo-2,5-dihydro-1H-pyrrol-1-yl)-4-methylpentanamide]	> 200
CC(C)CC1C(=O)N(C(CC(C)C)C(=O)N[C@@H](Cc2ccccc2)C(=O)O)C(=O)C1c1ccc(O)cc1 (stereo partly shown) [Compound A1-7]	27
CC(C)CC1C(=O)N(C(CC(C)C)C(=O)N[C@@H](C)C(=O)O)C(=O)C1c1ccc(O)cc1 (stereo partly shown) [Compound A1-10]	16
COC(=O)[C@H](CC(C)C)NC(=O)C(Cc1ccccc1)N1C(=O)C(CC(C)C)=C(c2ccc(OCC=C(C)C)cc2)C1=O (stereo partly shown) [Compound A2-1, Methyl 2-(2-(3-isobutyl-4-(4-(3-methylbut-2-enyloxy)phenyl)-2,5-dioxo-2,5-dihydro-1H-pyrrol-1-yl)-3-phenylpropanamido)-4-methylpentanoate]	> 100
CCOC(=O)C(Cc1ccccc1)NC(=O)C(Cc1ccccc1)N1C(=O)C(CC(C)C)=C(c2ccc(OCC=C(C)C)cc2)C1=O (stereo not shown) [Compound A2-2, Ethyl 2-(2-(3-isobutyl-4-(4-(3-methylbut-2-enyloxy)phenyl)-2,5-dioxo-2,5-dihydro-1H-pyrrol-1-yl)-3-phenylpropanamido)-3-phenylpropanoate]	100
CCOC(=O)[C@H](Cc1ccc(O)cc1)NC(=O)C(Cc1ccccc1)N1C(=O)C(CC(C)C)=C(c2ccc(OCC=C(C)C)cc2)C1=O (stereo partly shown) [Compound A2-3, Ethyl 3-(4-hydroxyphenyl)-2-(2-(3-isobutyl-4-(4-(3-methylbut-2-enyloxy)phenyl)-2,5-dioxo-2,5-dihydro-1H-pyrrol-1-yl)-3-phenylpropanamido)propanoate]	100
CC(C)CC1C(=O)N(C(Cc2ccccc2)C(=O)N[C@@H](CC(C)C)C(=O)O)C(=O)C1c1ccc(O)cc1 (stereo partly shown) [Compound A2-11]	120
CC(C)CC1C(=O)N(C(Cc2ccccc2)C(=O)N[C@@H](Cc2ccccc2)C(=O)O)C(=O)C1c1ccc(O)cc1 (stereo partly shown) [Compound A2-12]	192
CC(C)CC1C(=O)N(C(CO)C(=O)N[C@@H](Cc2ccccc2)C(=O)O)C(=O)C1c1ccc(O)cc1 (stereo partly shown) [Compound A3-16]	132
CC(C)=CCOc1ccc(C2=C(CC(C)C)C(=O)N(C(Cc3ccc(O)cc3)C(=O)O)C2=O)cc1 (stereo not shown) [Compound A4, 3-(4-Hydroxyphenyl)-2-(3-isobutyl-4-(4-(3-methylbut-2-enyloxy)-phenyl)-2,5-dioxo-2,5-dihydro-1H-pyrrol-1-yl)propanoic acid]	16
CSCCC(C(=O)O)N1C(=O)C(CC(C)C)=C(c2ccc(OCC=C(C)C)cc2)C1=O (stereo not shown) [Compound A5, 2-(3-Isobutyl-4-(4-(3-methylbut-2-enyloxy)phenyl)-2,5-dioxo-2,5-dihydro-1H-pyrrol-1-yl)-4-(methylthio)butanoic acid]	21
CC(C)=CCOc1ccc(C2=C(CC(C)C)C(=O)N(C(C(=O)O)C(C)O)C2=O)cc1 (stereo not shown) [Compound A6, 3-Hydroxy-2-(3-isobutyl-4-(4-(3-methylbut-2-enyloxy)phenyl)-2,5-dioxo-2,5-dihydro-1H-pyrrol-1-yl)butanoic acid]	18
CC(C)=CCOc1ccc(C2=C(CC(C)C)C(=O)N(C(C(=O)O)C(C)C)C2=O)cc1 (stereo not shown) [Compound A7, 2-(3-Isobutyl-4-(4-(3-methylbut-2-enyloxy)phenyl)-2,5-dioxo-2,5-dihydro-1H-pyrrol-1-yl)-3-methylbutanoic acid]	23.3
CC(C)=CCOc1ccc(C2=C(CC(C)C)C(=O)N(C(C)C(=O)O)C2=O)cc1 (stereo not shown) [Compound A8, 2-(3-Isobutyl-4-(4-(3-methylbut-2-enyloxy)phenyl)-2,5-dioxo-2,5-dihydro-1H-pyrrol-1-yl)propanoic acid]	27
CC(C)=CCOc1ccc(C2=C(CC(C)C)C(=O)N(C(CCC(=O)O)C(=O)O)C2=O)cc1 (stereo not shown) [Compound A9, 2-(3-Isobutyl-4-(4-(3-methylbut-2-enyloxy)phenyl)-2,5-dioxo-2,5-dihydro-1H-pyrrol-1-yl)pentanedioic acid]	19
CC(C)CC1C(=O)N(C(Cc2ccccc2)C(=O)O)C(=O)C1c1ccc(O)cc1 (stereo not shown) [Compound A11]	63

Compound	IC50 [µM]
CC(C)CC1C(=O)N(C(CO)C(=O)O)C(=O)C1c1ccc(O)cc1 (stereo not shown) [Compound A12]	25
CC(C)CC1C(=O)N(C(C(=O)O)C(C)C)C(=O)C1c1ccc(O)cc1 (stereo not shown) [Compound A15]	85
CC(C)CC1C(=O)N(C(C)C(=O)O)C(=O)C1c1ccc(O)cc1 (stereo not shown) [Compound A16]	170
CC(C)CC1C(=O)N(C(CCOCO)C(=O)O)C(=O)C1c1ccc(O)cc1 (stereo not shown) [Compound A17]	105
CC(C)=CCOc1ccc(C2=C(CC(C)C)C(=O)N(CC(O)C(=O)O)C2=O)cc1 (stereo not shown) [KA, 2-Hydroxy-3-(3-isobutyl-4-(4-(3-methylbut-2-enyloxy)phenyl)-2,5-dioxo-2,5-dihydro-1H-pyrrol-1-yl)propanoic acid]	8.7
CC(C)=CCOc1ccc(C2=C(CC(C)C)C(=O)N(CC(=O)C(=O)NC(C)C(=O)OC(C)(C)C)C2=O)cc1 (stereo not shown) [KA-5-2]	47.6
CC(C)CC1C(=O)N(CC(=O)C(=O)NC(C)C(=O)O)C(=O)C1c1ccc(O)cc1 (stereo not shown) [KA-5]	70
CC(C)CC1C(=O)N(CC(O)C(=O)O)C(=O)C1c1ccc(O)cc1 (stereo not shown) [KA-t]	185
CC(C)=CCOc1ccc(C2=C(CC(C)C)C(=O)N(CC(=O)C(N)=O)C2=O)cc1 [KAnh-1]	153
CC(C)CC1C(=O)N(CC(=O)C(N)=O)C(=O)C1c1ccc(O)cc1 (stereo not shown) [KAnh-2]	146
CC(C)=CCOc1ccc(C2=C(CC(C)C)C(=O)N(CCC(O)C(=O)O)C2=O)cc1 (stereo not shown) [KB, 2-Hydroxy-4-(3-isobutyl-4-(4-(3-methylbut-2-enyloxy)phenyl)-2,5-dioxo-2,5-dihydro-1H-pyrrol-1-yl)butanoic acid]	15.6
CC(C)=CCOc1ccc(C2=C(CC(C)C)C(=O)N(CCC(=O)C(=O)NC3CC3)C2=O)cc1 [KB-1, N-Cyclopropyl-4-(3-isobutyl-4-(4-(3-methylbut-2-enyloxy)phenyl)-2,5-dioxo-2,5-dihydro-1H-pyrrol-1-yl)-2-oxobutanamide]	61.9
CC(C)=CCOc1ccc(C2=C(CC(C)C)C(=O)N(CCC(=O)C(=O)NC(C)C(=O)OC(C)(C)C)C2=O)cc1 (stereo not shown) [KB-1-2]	35.2
CC(C)=CCOc1ccc(C2=C(CC(C)C)C(=O)N(CCC(=O)C(=O)NC(Cc3ccccc3)C(=O)OC(C)(C)C)C2=O)cc1 (stereo not shown) [KB-2-2]	16.2
CC(C)CC1C(=O)N(CCC(=O)C(=O)NC(Cc2ccccc2)C(=O)O)C(=O)C1c1ccc(O)cc1 (stereo not shown) [KB-2]	100
CC(C)=CCOc1ccc(C2=C(CC(C)C)C(=O)N(CCC(=O)C(N)=O)C2=O)cc1 [KBnh-1]	12.1
CC(C)CC1C(=O)N(CCC(=O)C(N)=O)C(=O)C1c1ccc(O)cc1 (stereo not shown) [KBnh-2]	7.4
CC(C)=CCOc1ccc(C2=C(CC(C)C)C(=O)N(C(c3ccccc3)C(O)C(=O)O)C2=O)cc1 (stereo not shown) [KC, 2-Hydroxy-3-(3-isobutyl-4-(4-(3-methylbut-2-enyloxy)phenyl)-2,5-dioxo-2,5-dihydro-1H-pyrrol-1-yl)-3-phenylpropanoic acid]	5
CCOC(=O)[C@H](Cc1ccccc1)NC(=O)C(=O)C(c1ccccc1)N1C(=O)C(CC(C)C)=C(c2ccc(OCC=C(C)C)cc2)C1=O (stereo partly shown) [KC-1, Ethyl 2-(3-(3-isobutyl-4-(4-(3-methylbut-2-enyloxy)phenyl)-2,5-dioxo-2,5-dihydro-1H-pyrrol-1-yl)-2-oxo-3-phenylpropanamido)-3-phenylpropanoate]	> 100
CCOC(=O)[C@H](C)NC(=O)C(=O)C(c1ccccc1)N1C(=O)C(CC(C)C)=C(c2ccc(OCC=C(C)C)cc2)C1=O (stereo partly shown) [KC-2, Ethyl 2-(3-(3-isobutyl-4-(4-(3-methylbut-2-enyloxy)phenyl)-2,5-dioxo-2,5-dihydro-1H-pyrrol-1-yl)-2-oxo-3-phenylpropanamido)propanoate]	> 100
